Measurements taken from patent publication US20230295163A1, “TETRACYCLIC DERIVATIVE, METHOD FOR PREPARING SAME AND USE THEREOF IN MEDICINE” (ZHEJIANG HISUN PHARMACEUTICAL CO., LTD., priority 2020, published 2023).

Key:
[1] = ICR mouse pharmacokinetic research; assay type: in vivo; conditions: plasma, po, ICR mice, intragastric administration 5 mg/kg
Experimental: ICR mice were used as test animals. The drug concentrations in plasma at different time points of the compounds in Comparative Example 1 and Example 17 of the present disclosure intragastrically administered to the mice were determined by LC/MS/MS method, to study the pharmacokinetic characteristics of the compounds of the present disclosure in mice.
Preparation for intragastric administration: An appropriate amount of the compound to be tested was weighed, added with an appropriate amount of DMSO: PEG 200=5%: 95% (v/v), shaken by vortex, and prepared into a solution with a final concentration of 0.5 mg/mL.
Intragastric administration group: After fasting overnight, the mice were intragastrically administered at a dose of 5 mg/kg and a volume of 10 mL/kg, and fed 4 h after the administration.
Intragastric administration group: About 100 μL of blood was collected through the orbital vein before administration and at 0.25 h, 0.5 h, 1 h, 2 h, 4 h, 8 h, 12 h and 24 h after administration.
The whole blood sample was put in an EDTA-K2 anticoagulant tube. The plasma was separated by centrifugation at 1500 g for 10 min. The collected upper layer plasma was stored at −40 to −20° C. before analysis.
The content of the compound to be tested in mouse plasma was determined by LC-MS/MS after the compound was intragastrically administered.

[2] = system: NCI-H358 cell xenograft tumor; experiment: Pharmacodynamics in NCI-H358 cell BALB/c nude mouse subcutaneous xenograft model; assay type: in vivo, BALB/c nude mice; conditions: 10 mg/kg po qd
Experimental: This test is used to evaluate the anti-tumor effect and safety of the compound 17 of the present disclosure in the animal model of BALB/c nude mouse subcutaneously transplanted with NCI-H358 (human non-small cell lung cancer) cell line after oral intragastric administration for 14 days, once a day.
An appropriate amount of compound 17 was weighed into a 10 mL centrifuge tube, added with an appropriate amount of DMA, shaken by vortex for complete dissolution of the solid matter, then added with an appropriate volume of 30% solutol HS 15, shaken by vortex, mixed well, and added with normal saline to make the ratio of DMA:30% solutol HS 15:saline 10:10:80 (v/v/v), for a preparation at a concentration of 1 mg/mL for administration.
About 3.7×10^6 NCI-H358 cells were subcutaneously inoculated on the right side of the back of female BALB/c nude mice. When the average volume of the tumor reached about 100-150 mm^3, the mice were randomly divided into 2 groups according to the size of the tumor, 6 mice in each group.
After tumor inoculation, a subcutaneous xenograft tumor model was established. Each treatment group and the vehicle control group were orally intragastrically administered for 14 days. The animals were weighed daily, and the tumor volume was measured twice a week.
Formulas for calculating the tumor volume (TV), relative tumor proliferation rate (T/C), relative tumor growth inhibition rate (TGI) and tumor inhibition rate (IR) are as follows: • (1) TV (tumor volume)=½×a×b^2, where a and b represent the length and width of the tumor, respectively; • (2) T/C (relative tumor proliferation rate, %)=TRTV/CRTV×100%, where TRTV is the RTV of the treatment group, and CRTV is the RTV of the control group; • (3) TGI % (tumor growth inhibition rate)=(1−T/C)×100%; where T and C are the relative tumor volumes at a specific time point in the treatment group and the control group, respectively. • (4) IR (%) (tumor weight inhibition rate)=(1−TWt/TWc)×100%, where TWt is the tumor weight in the treatment group, and TW is the tumor weight in the control group.

[3] = system: NCI-H358 cells; experiment: Inhibition of NCI-H358 cell proliferation (CellTiter-Glo); assay type: cell-based, human; conditions: Homo sapiens, NCI-H358, 120 h, 120 h of culture; read-out: IC50 inhibiting NCI-H358 cell proliferation
Experimental: The following method was used to determine the effect of the compounds of the present disclosure on the proliferation of NCI-H358 cells. NCI-H358 cells (containing KRAS G12C mutation) were purchased from the Cell Resource Center, Shanghai Institutes for Biology Sciences, Chinese Academy of Sciences, and cultured in RPMI 1640 medium containing 10% fetal bovine serum, 100 U penicillin, 100 μg/mL streptomycin and 1 mM sodium pyruvate. Cell viability was determined by CellTiter-Glo® Luminescent Cell Viability Assay Kit (Promega, Cat. No. G7573).
The experiment was conducted according to the steps in the kit instruction, which is briefly described as follows: The test compound was first prepared with DMSO into a 10 mM stock solution, which was then diluted with medium into a test sample with a final concentration of the compound ranging from 1000 nM to 0.015 nM Cells in the logarithmic growth phase were inoculated into a 96-well cell culture plate at a density of 800 cells per well, cultured overnight at 37° C. in a 5% CO2 incubator, and then added with the test compound for 120 h of culture. After the culture was completed, 50 μL of CellTiter-Glo detection solution was added to each well, shaken for 5 min and left to stand for 10 min. Subsequently, the luminescence value of the sample in each well was read by a microplate in a luminescence mode. The percentage of inhibition rate of the compounds at each concentration was calculated by comparing with the value of the control group (0.3% DMSO). Then a nonlinear regression analysis on the log concentration-inhibition rate of the compounds was performed by the software GraphPad Prism 5 to obtain the IC50 value of the compound inhibiting NCI-H358 cell proliferation. Table 2 IC50 data of compounds of the present disclosure inhibiting NCI-H358 cell proliferation Compound number IC50(nM)

C=CC(=O)N1C[C@@H]2C(=O)N(C)c3c(c4cc(Cl)c(-c5c(O)cccc5F)nc4n(-c4c(SC)ccnc4C(C)C)c3=O)N2C[C@H]1C (single isomer, unassigned) [Compound 17]
AUC(0-inf) ([1]; read-out: Area under curve AUC0-∞): 6380 ng·h/mL | Cmax ([1]; read-out: Blood concentration Cmax): 1400 ng/mL | half-life ([1]; read-out: Half-life T½ (converted)): 2.36 h | IR (tumor weight inhibition rate) ([2]; 14 days): 90.8% | Tumor weight (x ± S) ([2]; 14 days): 0.0157 ± 0.0033 g | T/C (%) ([2]; Day 15 after administration): 15.6% | TGI (%) ([2]; Day 15 after administration): 84.4% | Tumor volume (x ± S) ([2]; Day 15 after administration, mean ± standard error): 52 ± 15 mm^3 | Body weight change ([2]; within 14 days): without significant body weight change | Growth inhibitory effect on the tumor model (in words) ([2]; within 14 days): obvious growth inhibitory effect | IC50 [3]: 21.1 nM
